Several values for one entry are separate records, joined by “and”; a condition that tells them apart may be missing. Identical values can stand only once. Where no end group is shown, it is not given here.
Legend:
MCAO model rats [1] = test: Cerebral infarction volume (TTC staining) in MCAO model rats; settings: rat, in vivo
Procedure: The focal cerebral ischemia-reperfusion model was prepared according to the reversible middle cerebral artery occlusion (MCAO) suture method proposed by Longa with modifications in view of the anatomical structure of the rat brain. The rats were anesthetized by intraperitoneal administration of 10% chloral hydrate at a dose of […]. After anesthetization, a cut was created at the cervical midline, and the common carotid artery (CCA), external carotid artery (ECA) and pterygopalatine artery were exposed. The head portion (0.5 cm) of a monofilament nylon fishing line (0.26 mm) was coated with paraffin and a mark was made at 20 mm. All rats were inserted through the right CCA incision, and the pterygopalatine artery was temporarily clamped to prevent mis-insertion. The length of the occlusion line was about 18-20 mm from the bifurcation of CCA depending on the animal's weight, thereby occluding middle cerebral artery on the right side. The skin was then sewed, and the tail end of the occlusion line was partially fixed to the skin. After a period of ischemia for 2 hours, the occlusion line was carefully pulled out to form a reperfusion. The procedure steps for the sham control were the same as the surgery group, except for insertion of a nylon fishing line. The body temperature was maintained at 37±0.5° C. during the ischemia period and 2 h after reperfusion.
The used animals were male adult SD rats (Vittalia) of SPF grade with body weight of 220-250 g.
No drugs were administered to the normal group and the sham group.
The rats were sacrificed by decapitation after scoring. The brain tissues were quickly removed and placed in a refrigerator at −20° C. After 10 minutes, the tissues were placed in a room temperature environment. The brains were placed in a rat brain section mold. After the olfactory bulb, cerebellum and low brain stem were removed, the brains were coronally cut five times at 2 mm thickness as shown in the profile to obtain six continuous raw coronal slices. Then, the brain sections were quickly placed in a 5 ml solution containing 2% TTC, and incubated at 37° C. for 30 minutes in the dark, during which the brain sections were flipped once every 5 minutes. With the TTC staining, the normal tissue would be rose red, and the infarcted tissue would be unstained and retained white. Each group of brain sections was arranged neatly, and photographed. The photos were processed by an image analysis system software and statistically analyzed. The infarction area of each brain section was calculated, and multiplied by the thickness of each brain section (2 mm). The products of the infarction area of individual brain section multiplied by the thickness were summed to obtain the cerebral infarction volume for each animal. The volumes were expressed as percentages accounting for the cerebral hemisphere to eliminate the effects of cerebral edema.

MCAO model rats [2] = test: HE staining for histological changes in brains of MCAO rats; assay type: in vivo, rat; settings: therapeutic and prophylactic administration, 10 mg/kg, 24 h after ischemia
Procedure: The rats in each group were decapitated at 24 h after ischemia, and the resultant brain was coronally sectioned near the optic chiasm with a thickness of about 4 mm. The sections were fixed with 10% formalin solution and dehydrated with alcohol with a concentration gradient from 70% to 100%. The sections were permeabilized twice in xylene, and embedded in paraffin. The paraffin block was carefully trimmed, and immobilized on a paraffin slicing machine, and sliced to sections with a thickness of 4 μm. The paraffin sections were completely unfolded, attached to a clean and dry glass slide, and stored in a refrigerator at 4° C. Conventional HE staining was performed, and the staining results were observed by light microscopy.

rats = test: Acute toxicity test on rats; assay type: in vivo, rat; settings: 200 mg/kg body weight
Procedure: Acute toxicity tests were performed on rats.

Row | Molecule | Mean of infarction volume percentage (MCAO model rats [1]) | Mean of infarction volume percentage (MCAO model rats [1]; 1 mg/kg) [%] | Reduction of infarction volume percentage vs model group (MCAO model rats [1]; 1 mg/kg) [%] | Mean of infarction volume percentage (MCAO model rats [1]; 3 mg/kg) [%] | Reduction of infarction volume percentage vs model group (MCAO model rats [1]; 3 mg/kg) [%] | effect on cerebral infarction volume (MCAO model rats [1]; 3 mg/kg) | Mean of infarction volume percentage (MCAO model rats [1]; 10 mg/kg) [%] | Reduction of infarction volume percentage vs model group (MCAO model rats [1]; 10 mg/kg) [%] | reduction of cerebral infarction volume (MCAO model rats [1]; 10 mg/kg) | pathological changes of brain tissue (HE staining) (MCAO model rats [2]) | acute toxicity (rats)
1 | CC[C@H](C)[C@H](NC(=O)[C@H](CCC(=O)O)NC(=O)[C@@H](NC(=O)[C@H](CC(=O)O)NC(=O)[C@H](CC(C)C)NC(=O)[C@H](CC(C)C)NC(=O)[C@H](CCCCN)NC(=O)[C@H](CCC(=O)O)NC(=O)[C@H](Cc1ccc(O)cc1)NC(=O)[C@H](CCCNC(=N)N)NC(=O)[C@H](CCCNC(=N)N)NC(=O)[C@H](CCCNC(=N)N)NC(=O)[C@H](CCC(N)=O)NC(=O)[C@H](CCCNC(=N)N)NC(=O)[C@H](CCCNC(=N)N)NC(=O)[C@H](CCCCN)NC(=O)[C@H](CCCCN)NC(=O)[C@H](CCCNC(=N)N)NC(=O)CNC(=O)[C@@H](N)Cc1ccc(O)cc1)[C@@H](C)O)C(=O)O [P5] | 24.84% and 36.54% and 43.22% | 44.23 | 3.76 | 35.66 | 22.41 | desirably reduced the cerebral infarction volume | 19.54 | 57.48 | about 50% | significantly improved | no lethal effect and other obvious toxic side effects
2 | YGRKKRRQRRRKLSSIESDV [NA-1, reference compound] | 38.56% |  |  |  |  |  |  |  |  |  | 
3 | YGRKKRRQRRRYEKLSSIESDV [YE-NA-1, reference compound] | 33.96% |  |  |  |  |  |  |  |  |  | 

Reference: patent US11229675B2, “Therapeutic peptides for excitatory neurotoxicity-related injuries” (Biocells (Beijing) Biotech Co., Ltd., priority 2016, dated 2022)
